The record followed here is patent US10501460B2, “Heterocyclic compounds and uses thereof” (Plexxikon Inc., priority 2013, dated 2019).

The target of test [1] is T1, BRD4-BD1 (44-164) (Homo sapiens, UniProt O60885).
T1 construct: BRD4-BD1 (44-164); made in house; host or cells: E. coli BL21-CodonPlus (DE3)
Nature of the test: Alphascreen binding assay BRD4-BD1 (BRD4 biochemical inhibitory activity). The settings on record: read-out: Biochemical activity (IC50 μM) BRD4(1) H4. The protocol:
Binding of compounds of formula (I) with bromodomain 2, 3 4 was assessed using Alphascreen binding assay. The inhibition of the interaction between bromodomain and its acetylated target protein (Filippakopoulos P et al. 2012) was measured quantitatively using recombinant BRD proteins, an acetylated Histone 4 peptide and AlphaScreen™ technology. In absence of inhibition the BRD protein bound to AlphaScreen™ nickel chelate acceptor beads can interact with the acetylated Histone 4 peptide which is immobilized by the AlphaScreen™ Streptavidin coated beads. This interaction brings donor and acceptor beads in proximity. The close proximity allows the singlet oxygen produced by laser excitation of the donor beads to reach the acceptor beads and generate a luminescence signal. BRD inhibitors result in a decrease in the proximity signal through an inhibition of the BRD—acetylated peptide interaction.
Recombinant human bromodomains containing the N-terminal bromodomain (BRD2-BD1 (71-194), BRD3-BD1 (24-144) and BRD4-BD1 (44-164)) or dual bromodomains (BRD4-BD12 (1-477), BRD4-BD12 (1-472)) were prepared and purified as described in protein expression and purification session. The peptide is human Histone H41-21K5AcK8AcK12AcK16Ac-Biotin (Anaspec Calif., USA).
Protocol for BRD2, BRD3 and BRD4 assay: All components are prepared in buffer composed of 50 mM HEPES pH 7.5, 100 mM NaCl, 0.01% bovine serum albumin (“BSA”), 0.01% Triton X-100, 2 mM dithiothreitol (“DTT”). 7 μL of Bromodomain protein and 7 μL of peptide are added to wells containing 1 μL of various concentrations of test compounds of formula (I) or DMSO vehicle in an Alphaplate (PerkinElmer Ga., USA) and incubated for 1 hour at room temperature. 4 μL donor and acceptor bead mixture is then added with final concentrations of 7.5 μg/ml. 30 minutes after bead addition, Alpha signal is read on the Envision spectrometer ([…]Ex 680 nm, […]Em 520-620 nm). Final concentrations of bromodomain proteins and peptide are as shown below.
All data was normalized to the mean of 16 high and 16 low control wells on each plate. A four parameter curve fit of the following formula was then applied: Y=a+(b−a)/(1+(x/c)^d) Where ‘a’ is the minimum, ‘b’ is the maximum, ‘c’ is the pIC50 and ‘d’ is the Hill slope. Protein Expression and Purification
Recombinant human bromodomains containing the N-terminal bromodomain (BRD2-BD1 (71-194), BRD3-BD1 (24-144) and BRD4-BD1 (44-164)) or dual bromodomains (BRD4-BD12 (1-477), BRD4-BD12 (1-472)) were expressed in E. coli cells (in a modified pET vector) with an N-terminal six-His tag and purified using a combination of both IMAC (Ni-affinity) and size exclusion chromatography steps.
Recombinant BRD proteins were expressed using the E. coli strain BL21-CodonPlus (DE3) (Agilent Technologies Calif., USA). Cells were grown in Terrific Broth (TB) media to an OD600 of 1.2 at 37° C. at which temperature was reduced to 25° C., protein was induced with 1.0 mM ispropyl-β-D-thiogalactopyranoside (“IPTG”) for 12-18 hours and harvested by centrifugation at 8000×g for 20 minutes. Cells were re-suspended in 0.1M K2PO4 pH 8.0, 250 mM NaCl, 10% Glycerol, 0.75% NP-40, 25 mM Imidazole, 5 mM beta-mercaptoethanol (“BME”) with 0.2 mg/ml Lysosyme, 2.0 mM phenylmethanesulfonyl fluoride (“PMSF”), 25 μg/ml DNAse I, incubated on ice for 30 minutes and lyzed with a cell disruptor (MicroFluidics Mass., USA). The lysate was clarified by centrifugation at 20,000×g for 2 hours. The protein was captured with Ni-NTA resin (Life Technologies, USA). Contaminating proteins were washed off with 25 mM Tris-HCl pH 8.3, 250 mM NaCl, 12% Glycerol and 50 mM Imidazole. Following 3× wash steps, protein was eluted step wise using a 50 mM HEPES pH 7.5, 500 mM NaCl and 400 mM Imidazole. The protein was further purified using Gel Filtration column 26/600 Superdex 200 (GE Biosciences NJ, USA) in 50 mM HEPES pH 7.5, 250 mM NaCl. The protein was aliquoted and flash-frozen in liquid Nitrogen. […]
For orientation: Alpha assays give light when donor and acceptor beads are brought close together.

The subject of test [2] is MV-4-11. Nature of the test: Oncology cell growth assay MV-4-11 (CellTiter Glo, 72 hours). In kind it is cell-based. To be noted: Homo sapiens, MV4-11, 72 h; MV-4-11 cell growth inhibitory activity, 3d. In outline:
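Growth read by CellTiter Glo luminescence after 72 h compound exposure of MV-4-11 AML cells (MLL-AF4), using 8-point 1:3 series to 10 μM final in 0.2% DMSO. Data normalized to DMSO wells, four-parameter fit yields pIC50.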
(ATP-based viability assays read luminescence as a measure of living cells.)

For test [3], the system named is bromodomain. As to the kind of experiment: Bromodomain cell assays of Example 40 (at least one of them). The settings on record: in at least one of the bromodomain cell assays described in Example 40. In kind it is cell-based. The gist of the method: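 Growth inhibition: 3000 MV-4-11, MOLM-13, MM.1S or neuroblastoma cells/well got an 8-point 1:3 series from 10 μM top (0.2% DMSO) for 72 h, then CellTiter-Glo luminescence. Myc reporter: MV-4-11 with E-box firefly luciferase, 24 h exposure, One-Glo luminescence plus CellTiter-Fluo cell count. pIC50 from four-parameter fit.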

The structures appear in SMILES notation.

Turning to `CCc1cc2cc(-c3c(C)noc3C)cnc2[nH]1` [P-0035, 4-(2-ethyl-1H-pyrrolo[2,3-b]pyridin-5-yl)-3,5-dimethyl-isoxazole], the results for the half-inhibitory concentration (IC50) in test [1], in test [2] and in test [3] were 1 to 10 µM, 1 to 10 µM and < 10 µM, respectively.
For `[2H]C([2H])([2H])n1cc(CC2CCC(F)(F)CC2)c2cc(-c3c(C)noc3C)cnc21` [P-0079, 4-[3-[(4,4-difluorocyclohexyl)methyl]-1-(trideuteriomethyl)pyrrolo[2,3-b]pyridin-5-yl]-3,5-dimethyl-isoxazole], the concentration for half-maximal inhibition (IC50) was ≤ 1 µM in test [1], 1 to 10 µM in test [2] and < 10 µM in test [3].
The corresponding values for `Cc1noc(C)c1-c1cnc2[nH]cc(C(O)c3ccc(C(F)(F)F)nc3)c2c1` (stereo not drawn) [P-0023, [5-(3,5-dimethylisoxazol-4-yl)-1H-pyrrolo[2,3-b]pyridin-3-yl]-[6-(trifluoromethyl)-3-pyridyl]methanol] are 1 to 10 µM, 1 to 10 µM and < 10 µM.
On the same counts, the results for `Cc1noc(C)c1-c1cnc2[nH]cc(Cc3cccc(OC(F)(F)F)c3)c2c1` [P-0046, 3,5-dimethyl-4-[3-[[3-(trifluoromethoxy)phenyl]methyl]-1H-pyrrolo[2,3-b]pyridin-5-yl]isoxazole] are 1 to 10 µM, 1 to 10 µM and < 10 µM.
The corresponding values for `Cc1noc(C)c1-c1cnc2ccn(S(=O)(=O)c3cccc(Cl)c3)c2c1` [P-0057, 4-[1-(3-chlorophenyl)sulfonylpyrrolo[3,2-b]pyridin-6-yl]-3,5-dimethyl-isoxazole] are 1 to 10 µM, ≤ 1 µM and < 10 µM.
For `Cc1noc(C)c1-c1cnc2c(c1)c(S(=O)(=O)c1ccccc1)cn2C1COC1` [P-0179, 4-[3-(benzenesulfonyl)-1-(oxetan-3-yl)pyrrolo[2,3-b]pyridin-5-yl]-3,5-dimethyl-isoxazole], the half-inhibitory concentration (IC50) was 1 to 10 µM in test [1], 1 to 10 µM in test [2] and < 10 µM in test [3].
As for `Cc1noc(C)c1-c1cnc2c(c1)c(C=C1CCS(=O)(=O)CC1)cn2S(=O)(=O)c1ccccc1` [P-0097, 4-[[1-(benzenesulfonyl)-5-(3,5-dimethylisoxazol-4-yl)pyrrolo[2,3-b]pyridin-3-yl]methylene]thiane 1,1-dioxide], the 50% inhibitory concentration (IC50) in test [1] is 1 to 10 µM; in test [2], 1 to 10 µM; in test [3], < 10 µM.
As for `Cc1noc(C)c1-c1cnc2ccn(S(=O)(=O)c3ccc(OC(C)C)cc3)c2c1` [P-0033, 4-[1-(4-isopropoxyphenyl)sulfonylpyrrolo[3,2-b]pyridin-6-yl]-3,5-dimethyl-isoxazole], the half-maximal inhibitory concentration (IC50) in test [1] is 1 to 10 µM; in test [2], 1 to 10 µM; in test [3] it was < 10 µM.
On to `[2H]C([2H])(C1CCC(F)(F)CC1)n1cc(-c2cnn(C3CC3)c2)c2ncc(-c3c(C)noc3C)cc21` [P-0220, 4-[3-(1-cyclopropylpyrazol-4-yl)-1-[dideuterio-(4,4-difluorocyclohexyl)methyl]pyrrolo[3,2-b]pyridin-6-yl]-3,5-dimethyl-isoxazole], for which the IC50 in test [1] is ≤ 1 µM; in test [2], ≤ 1 µM; in test [3], < 10 µM.
In the case of `[2H]C([2H])([2H])n1cc(C(OC)C2CCC(F)(F)CC2)c2cc(-c3c(C)noc3C)cnc21` (stereo not drawn) [P-0080, 4-[3-[(4,4-difluorocyclohexyl)-methoxy-methyl]-1-(trideuteriomethyl)pyrrolo[2,3-b]pyridin-5-yl]-3,5-dimethyl-isoxazole], the IC50 was ≤ 1 µM in test [1], ≤ 1 µM in test [2] and < 10 µM in test [3].
As to `Cc1noc(C)c1-c1cnc2[nH]cc(C=C3CCS(=O)(=O)CC3)c2c1` [P-0099, 4-[[5-(3,5-dimethylisoxazol-4-yl)-1H-pyrrolo[2,3-b]pyridin-3-yl]methylene]thiane 1,1-dioxide], the IC50 in test [1] is 1 to 10 µM; in test [2], 1 to 10 µM; in test [3], < 10 µM.
Regarding `Cc1noc(C)c1-c1cnc2[nH]cc(C(=O)C3CCSCC3)c2c1` [P-0091, [5-(3,5-dimethylisoxazol-4-yl)-1H-pyrrolo[2,3-b]pyridin-3-yl]-tetrahydrothiopyran-4-yl-methanone], the results for the concentration for half-maximal inhibition (IC50) in test [1], in test [2] and in test [3] were ≤ 1 µM, 1 to 10 µM and < 10 µM, respectively.
For the molecule `Cc1noc(C)c1-c1cnc2c(c1)c(CC1CC3CCC1C3)cn2C` (stereo not drawn) [P-0100, 3,5-dimethyl-4-[1-methyl-3-(norbornan-2-ylmethyl)pyrrolo[2,3-b]pyridin-5-yl]isoxazole], the figures for the IC50 in test [1], in test [2] and in test [3] were 1 to 10 µM, 1 to 10 µM and < 10 µM, respectively.
`Cc1cc2cc(-c3c(C)noc3C)cnc2[nH]1` [P-0017, 3,5-dimethyl-4-(2-methyl-1H-pyrrolo[2,3-b]pyridin-5-yl)isoxazole]: the values for the IC50 in test [1], in test [2] and in test [3] were 1 to 10 µM, 1 to 10 µM and < 10 µM, respectively.
`Cc1noc(C)c1-c1cnc2c(-c3cnc(C4CC4)nc3)cn(S(=O)(=O)c3ccccc3)c2c1` [P-0102, 4-[1-(benzenesulfonyl)-3-(2-cyclopropylpyrimidin-5-yl)pyrrolo[3,2-b]pyridin-6-yl]-3,5-dimethyl-isoxazole]: the values for the IC50 in test [1], in test [2] and in test [3] were 1 to 10 µM, 1 to 10 µM and < 10 µM, respectively.
In the case of `Cc1csc(S(=O)(=O)n2ccc3ncc(-c4c(C)noc4C)cc32)c1` [P-0059, 3,5-dimethyl-4-[1-[(4-methyl-2-thienyl)sulfonyl]pyrrolo[3,2-b]pyridin-6-yl]isoxazole], the IC50 was 1 to 10 µM in test [1], 1 to 10 µM in test [2] and < 10 µM in test [3].
Consider `Cc1nc(-c2cn(S(=O)(=O)c3ccccc3)c3cc(-c4c(C)noc4C)cnc23)cs1` [P-0191, 4-[1-(benzenesulfonyl)-3-(2-methylthiazol-4-yl)pyrrolo[3,2-b]pyridin-6-yl]-3,5-dimethyl-isoxazole], for which the concentration for half-maximal inhibition (IC50) is 1 to 10 µM in test [1], ≤ 1 µM in test [2] and < 10 µM in test [3].
The corresponding values for `Cc1noc(C)c1-c1cnc2c(c1)c(Sc1ccccc1)cn2C1CCOCC1` [P-0182, 3,5-dimethyl-4-(3-phenylsulfanyl-1-tetrahydropyran-4-yl-pyrrolo[2,3-b]pyridin-5-yl)isoxazole] are 1 to 10 µM, ≤ 1 µM and < 10 µM.

By IC50 is commonly meant the concentration that gives 50% inhibition.
